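Exposure lasted 48 hours, with cells grown in 96-well plates and compounds tested at five concentrations. TGI is the concentration that stops growth completely.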
Columns and labels:
Test in all cases: NCI-60 cell line screen, 48 h
786-0 renal = tested on: 786-0 renal
A498 renal = tested on: A498 renal
A549 NSCLC = tested on: A549 NSCLC
ACHN renal = tested on: ACHN renal
BT-549 breast = tested on: BT-549 breast
CAKI-1 renal = tested on: CAKI-1 renal
CCRF-CEM leukemia = tested on: CCRF-CEM leukemia
COLO 205 colon = tested on: COLO 205 colon
DU-145 prostate = tested on: DU-145 prostate
EKVX NSCLC = tested on: EKVX NSCLC
HCC-2998 colon = tested on: HCC-2998 colon
HCT-116 colon = tested on: HCT-116 colon
HCT-15 colon = tested on: HCT-15 colon
HL-60(TB) leukemia = tested on: HL-60(TB) leukemia
HOP-62 NSCLC = tested on: HOP-62 NSCLC
HOP-92 NSCLC = tested on: HOP-92 NSCLC
HS 578T breast = tested on: HS 578T breast
HT29 colon = tested on: HT29 colon
IGROV1 ovarian = tested on: IGROV1 ovarian
K-562 leukemia = tested on: K-562 leukemia
KM12 colon = tested on: KM12 colon
LOX IMVI melanoma = tested on: LOX IMVI melanoma
M14 melanoma = tested on: M14 melanoma
MALME-3M melanoma = tested on: MALME-3M melanoma
MCF7 breast = tested on: MCF7 breast
MDA-MB-231 breast = tested on: MDA-MB-231 breast
MDA-MB-435 = tested on: MDA-MB-435
MDA-N = tested on: MDA-N
MOLT-4 leukemia = tested on: MOLT-4 leukemia
NCI-H226 lung = tested on: NCI-H226 lung
NCI-H23 lung = tested on: NCI-H23 lung
NCI-H460 lung = tested on: NCI-H460 lung
NCI-H522 lung = tested on: NCI-H522 lung
NCI/ADR-RES ovarian = tested on: NCI/ADR-RES ovarian
OVCAR-3 ovarian = tested on: OVCAR-3 ovarian
OVCAR-4 ovarian = tested on: OVCAR-4 ovarian
OVCAR-5 ovarian = tested on: OVCAR-5 ovarian
OVCAR-8 ovarian = tested on: OVCAR-8 ovarian
PC-3 prostate = tested on: PC-3 prostate
RPMI-8226 leukemia = tested on: RPMI-8226 leukemia
RXF 393 renal = tested on: RXF 393 renal
SF-268 CNS = tested on: SF-268 CNS
SF-295 CNS = tested on: SF-295 CNS
SF-539 CNS = tested on: SF-539 CNS
SK-MEL-2 melanoma = tested on: SK-MEL-2 melanoma
SK-MEL-28 melanoma = tested on: SK-MEL-28 melanoma
SK-MEL-5 melanoma = tested on: SK-MEL-5 melanoma
SK-OV-3 ovarian = tested on: SK-OV-3 ovarian
SN12C renal = tested on: SN12C renal
SNB-19 CNS = tested on: SNB-19 CNS
SNB-75 CNS = tested on: SNB-75 CNS
SR leukemia = tested on: SR leukemia
SW-620 colon = tested on: SW-620 colon
T-47D breast = tested on: T-47D breast
TK-10 renal = tested on: TK-10 renal
U251 CNS = tested on: U251 CNS
UACC-257 melanoma = tested on: UACC-257 melanoma
UACC-62 melanoma = tested on: UACC-62 melanoma
UO-31 renal = tested on: UO-31 renal

FC(F)(F)c1ccc2c(c1)nc(Cc1ccccc1)n2C[C@@H]1CCCN2CCCCC12 (stereo partly specified)
TGI (786-0 renal): 28.6 µM
TGI (A498 renal): 29.1 µM
TGI (A549 NSCLC): 28.8 µM
TGI (ACHN renal): 26.5 µM
TGI (BT-549 breast): 28.7 µM
TGI (CAKI-1 renal): 31.1 µM
TGI (CCRF-CEM leukemia): > 54.8 µM
TGI (COLO 205 colon): 31.2 µM
TGI (DU-145 prostate): 29.3 µM
TGI (EKVX NSCLC): 28.9 µM
TGI (HCC-2998 colon): 10.6 µM
TGI (HCT-116 colon): 27.9 µM
TGI (HCT-15 colon): 30.6 µM
TGI (HL-60(TB) leukemia): 13.9 µM
TGI (HOP-62 NSCLC): 28.7 µM
TGI (HOP-92 NSCLC): 27.2 µM
TGI (HS 578T breast): 57 µM
TGI (HT29 colon): 26.8 µM
TGI (IGROV1 ovarian): 28.9 µM
TGI (K-562 leukemia): > 64.8 µM
TGI (KM12 colon): 30.3 µM
TGI (LOX IMVI melanoma): 30.3 µM
TGI (M14 melanoma): 23 µM
TGI (MALME-3M melanoma): 31.1 µM
TGI (MCF7 breast): 28.6 µM
TGI (MDA-MB-231 breast): 27.8 µM
TGI (MDA-MB-435): 30.4 µM
TGI (MDA-N): 26.2 µM
TGI (MOLT-4 leukemia): > 52.7 µM
TGI (NCI-H226 lung): 40.4 µM
TGI (NCI-H23 lung): 30.8 µM
TGI (NCI-H460 lung): 31.9 µM
TGI (NCI-H522 lung): 31.6 µM
TGI (NCI/ADR-RES ovarian): 30.9 µM
TGI (OVCAR-3 ovarian): 28 µM
TGI (OVCAR-4 ovarian): 31.5 µM
TGI (OVCAR-5 ovarian): 31.7 µM
TGI (OVCAR-8 ovarian): 29.7 µM
TGI (PC-3 prostate): 28.5 µM
TGI (RPMI-8226 leukemia): 82.7 µM
TGI (RXF 393 renal): 23 µM
TGI (SF-268 CNS): 31 µM
TGI (SF-295 CNS): 29.6 µM
TGI (SF-539 CNS): 35.6 µM
TGI (SK-MEL-2 melanoma): 30.6 µM
TGI (SK-MEL-28 melanoma): 32.3 µM
TGI (SK-MEL-5 melanoma): 29.6 µM
TGI (SK-OV-3 ovarian): 31.3 µM
TGI (SN12C renal): 27 µM
TGI (SNB-19 CNS): 28.6 µM
TGI (SNB-75 CNS): 29.9 µM
TGI (SR leukemia): > 100 µM
TGI (SW-620 colon): > 65.7 µM
TGI (T-47D breast): 30.4 µM
TGI (TK-10 renal): 31.3 µM
TGI (U251 CNS): 29.2 µM
TGI (UACC-257 melanoma): 28.9 µM
TGI (UACC-62 melanoma): 30.7 µM
TGI (UO-31 renal): 0.744 µM

COC(=O)c1ccc2n1C1CC3CC(CC2C3)C1
TGI (786-0 renal): > 100 µM
TGI (A498 renal): > 100 µM
TGI (A549 NSCLC): > 100 µM
TGI (ACHN renal): > 100 µM
TGI (BT-549 breast): > 100 µM
TGI (CAKI-1 renal): > 100 µM
TGI (CCRF-CEM leukemia): > 100 µM
TGI (COLO 205 colon): > 100 µM
TGI (DU-145 prostate): > 100 µM
TGI (EKVX NSCLC): > 100 µM
TGI (HCC-2998 colon): > 100 µM
TGI (HCT-116 colon): > 100 µM
TGI (HCT-15 colon): > 100 µM
TGI (HL-60(TB) leukemia): 54.7 µM
TGI (HOP-62 NSCLC): > 100 µM
TGI (HOP-92 NSCLC): > 100 µM
TGI (HS 578T breast): > 100 µM
TGI (HT29 colon): > 100 µM
TGI (IGROV1 ovarian): > 100 µM
TGI (K-562 leukemia): > 100 µM
TGI (KM12 colon): > 100 µM
TGI (LOX IMVI melanoma): > 100 µM
TGI (M14 melanoma): > 100 µM
TGI (MALME-3M melanoma): > 100 µM
TGI (MCF7 breast): > 100 µM
TGI (MDA-MB-231 breast): > 100 µM
TGI (MDA-MB-435): > 100 µM
TGI (MDA-N): > 100 µM
TGI (MOLT-4 leukemia): > 100 µM
TGI (NCI-H226 lung): > 100 µM
TGI (NCI-H23 lung): > 100 µM
TGI (NCI-H460 lung): > 100 µM
TGI (NCI-H522 lung): > 100 µM
TGI (NCI/ADR-RES ovarian): > 100 µM
TGI (OVCAR-3 ovarian): > 100 µM
TGI (OVCAR-4 ovarian): > 100 µM
TGI (OVCAR-5 ovarian): > 100 µM
TGI (OVCAR-8 ovarian): > 100 µM
TGI (PC-3 prostate): > 100 µM
TGI (RPMI-8226 leukemia): > 100 µM
TGI (RXF 393 renal): 96.6 µM
TGI (SF-268 CNS): > 100 µM
TGI (SF-295 CNS): > 100 µM
TGI (SF-539 CNS): > 100 µM
TGI (SK-MEL-2 melanoma): > 100 µM
TGI (SK-MEL-28 melanoma): > 100 µM
TGI (SK-MEL-5 melanoma): > 100 µM
TGI (SK-OV-3 ovarian): > 100 µM
TGI (SN12C renal): > 100 µM
TGI (SNB-19 CNS): > 100 µM
TGI (SNB-75 CNS): > 100 µM
TGI (SR leukemia): > 100 µM
TGI (SW-620 colon): > 100 µM
TGI (T-47D breast): > 100 µM
TGI (TK-10 renal): > 100 µM
TGI (U251 CNS): > 100 µM
TGI (UACC-257 melanoma): > 100 µM
TGI (UACC-62 melanoma): > 100 µM
TGI (UO-31 renal): > 100 µM

COc1ccc(/C=C2\CN(C)CC3=C2OC(N)=C(C#N)C3c2ccc(OC)cc2)cc1 (stereo unspecified)
TGI (786-0 renal): > 100 µM
TGI (A498 renal): > 100 µM
TGI (A549 NSCLC): > 100 µM
TGI (ACHN renal): > 100 µM
TGI (BT-549 breast): > 100 µM
TGI (CAKI-1 renal): > 100 µM
TGI (CCRF-CEM leukemia): 30.2 µM
TGI (COLO 205 colon): > 100 µM
TGI (DU-145 prostate): > 100 µM
TGI (EKVX NSCLC): > 100 µM
TGI (HCC-2998 colon): > 90.5 µM
TGI (HCT-116 colon): > 100 µM
TGI (HCT-15 colon): > 100 µM
TGI (HL-60(TB) leukemia): > 27.6 µM
TGI (HOP-62 NSCLC): > 100 µM
TGI (HOP-92 NSCLC): 59.3 µM
TGI (HS 578T breast): > 100 µM
TGI (HT29 colon): > 100 µM
TGI (IGROV1 ovarian): > 95.5 µM
TGI (K-562 leukemia): > 100 µM
TGI (KM12 colon): > 100 µM
TGI (LOX IMVI melanoma): > 100 µM
TGI (M14 melanoma): > 100 µM
TGI (MALME-3M melanoma): 58.1 µM
TGI (MCF7 breast): > 100 µM
TGI (MDA-MB-231 breast): > 100 µM
TGI (MDA-MB-435): > 71.2 µM
TGI (MDA-N): > 100 µM
TGI (MOLT-4 leukemia): > 49 µM
TGI (NCI-H226 lung): > 100 µM
TGI (NCI-H23 lung): > 100 µM
TGI (NCI-H460 lung): > 100 µM
TGI (NCI-H522 lung): > 83.1 µM
TGI (NCI/ADR-RES ovarian): > 100 µM
TGI (OVCAR-3 ovarian): > 93.1 µM
TGI (OVCAR-4 ovarian): > 100 µM
TGI (OVCAR-5 ovarian): > 100 µM
TGI (OVCAR-8 ovarian): > 100 µM
TGI (PC-3 prostate): > 53.1 µM
TGI (RPMI-8226 leukemia): > 43.9 µM
TGI (RXF 393 renal): > 86.9 µM
TGI (SF-268 CNS): > 100 µM
TGI (SF-295 CNS): > 100 µM
TGI (SF-539 CNS): > 100 µM
TGI (SK-MEL-2 melanoma): > 65.5 µM
TGI (SK-MEL-28 melanoma): > 100 µM
TGI (SK-MEL-5 melanoma): > 100 µM
TGI (SK-OV-3 ovarian): > 100 µM
TGI (SN12C renal): > 100 µM
TGI (SNB-19 CNS): > 100 µM
TGI (SR leukemia): > 100 µM
TGI (SW-620 colon): > 100 µM
TGI (T-47D breast): > 100 µM
TGI (TK-10 renal): > 100 µM
TGI (U251 CNS): > 100 µM
TGI (UACC-257 melanoma): > 100 µM
TGI (UACC-62 melanoma): > 100 µM
TGI (UO-31 renal): > 100 µM
